# Measurements taken from ChEMBL document CHEMBL5512665, “A CARM1 Inhibitor Potently Suppresses Breast Cancer Both In Vitro and In Vivo” (J Med Chem, 2024).
# Active and inactive are the calls of the source. The rule behind the calls is not given here.
# Key:
# MCF7 [1] = experiment: Antiproliferative activity against human MCF7 cells assessed as reduction in cell growth incubated for 7 days by celltiter 96 aqueous one solution cell proliferation assay; conditions: MCF7, 168 h
# BT-474 = experiment: Antiproliferative activity against human BT-474 cells assessed as reduction in cell growth incubated for 7 days by celltiter 96 aqueous one solution cell proliferation assay; conditions: BT-474, 168 h
# MCF7 [2] = experiment: Antitumor activity against human MCF7 cells xenografted in BALB/C mouse assessed as inhibition of tumor growth at 50 mg/kg,ip administrated every other day for 29 days; type: functional, organism-based; conditions: time 29.0 day
# [3] = Toxicity in BALB/C mouse xenografted with human MCF7 cells assessed as change in liver morphology at 25 mg/kg,ip administrated every other day for 29 days; type: organism-based; conditions: in vivo, 696 h, time 29 day
# [4] = Toxicity in BALB/C mouse xenografted with human MCF7 cells assessed as change in liver morphology at 50 mg/kg,ip administrated every other day for 29 days; type: organism-based; conditions: in vivo, 696 h, time 29 day
# MCF7 [5] = experiment: Antitumor activity against human MCF7 cells xenografted in BALB/C mouse assessed as downregulation of N-Myc gene expression at 25 mg/kg,ip administrated every other day for 29 days by RT-qPCR analysis; type: functional, organism-based; conditions: time 29.0 day
# MCF7 [6] = experiment: Antitumor activity against human MCF7 cells xenografted in BALB/C mouse assessed as downregulation of TFF1 gene expression at 25 mg/kg,ip administrated every other day for 29 days by RT-qPCR analysis; type: functional, organism-based; conditions: time 29.0 day
# MCF7 [7] = experiment: Antitumor activity against human MCF7 cells xenografted in BALB/C mouse assessed as downregulation of NRIP1 gene expression at 25 mg/kg,ip administrated every other day for 29 days by RT-qPCR analysis; type: functional, organism-based; conditions: time 29.0 day
# MCF7 [8] = experiment: Antitumor activity against human MCF7 cells xenografted in BALB/C mouse assessed as upregulation of CCL5 gene expression at 50 mg/kg,ip administrated every other day for 29 days by RT-qPCR analysis; type: functional, organism-based; conditions: time 29.0 day
# MCF7 [9] = experiment: Antitumor activity against human MCF7 cells xenografted in BALB/C mouse assessed as upregulation of DDX58 gene expression at 50 mg/kg,ip administrated every other day for 29 days by RT-qPCR analysis; type: functional, organism-based; conditions: time 29.0 day
# MDA-MB-231 [10] = experiment: Antiproliferative activity against human MDA-MB-231 cells assessed as reduction in cell growth incubated for 7 days by celltiter 96 aqueous one solution cell proliferation assay; conditions: MDA-MB-231, 168 h
# HCC1806 = experiment: Antiproliferative activity against human HCC1806 cells assessed as reduction in cell growth incubated for 7 days by celltiter 96 aqueous one solution cell proliferation assay; conditions: HCC1806, 168 h
# MDA-MB-231 [11] = experiment: Antitumor activity against human MDA-MB-231 cells xenografted in BALB/C mouse assessed as reduction of tumor weight at 50 mg/kg,ip administrated daily for 11 days; type: functional, organism-based; conditions: time 11.0 day
# [12] = Toxicity in BALB/C mouse xenografted with human MDA-MB-231 cells assessed as change in body weight at 25 mg/kg,ip administrated daily for 11 days; type: organism-based; conditions: in vivo, 264 h, time 11 day
# [13] = Toxicity in BALB/C mouse xenografted with human MDA-MB-231 cells assessed as change in heart morphology at 50 mg/kg,ip administrated daily for 11 days; type: organism-based; conditions: in vivo, 264 h, time 11 day
# 4T1 [14] = experiment: Antitumor activity against mouse 4T1 cells implanted in BALB/C mouse assessed as inhibition of tumor size at 25 mg/kg,ip administrated daily for 14 days; type: functional, organism-based; conditions: time 14.0 day
# [15] = Toxicity in BALB/C mouse implanted with mouse 4T1 cells assessed as change in kidney morphology at 50 mg/kg,ip administrated daily for 14 days; type: organism-based; conditions: in vivo, 336 h, time 14 day
# 4T1 [16] = experiment: Antitumor activity against mouse 4T1 cells implanted in BALB/C mouse assessed as downregulation of CCND1 gene expression at 25 mg/kg,ip administrated daily for 14 days by RT-qPCR analysis; type: functional, organism-based; conditions: time 14.0 day
# 4T1 [17] = experiment: Antitumor activity against mouse 4T1 cells implanted in BALB/C mouse assessed as downregulation of N-Myc gene expression at 50 mg/kg,ip administrated daily for 14 days by RT-qPCR analysis; type: functional, organism-based; conditions: time 14.0 day
# 4T1 [18] = experiment: Antitumor activity against mouse 4T1 cells implanted in BALB/C mouse assessed as downregulation of TFF1 gene expression at 25 mg/kg,ip administrated daily for 14 days by RT-qPCR analysis; type: functional, organism-based; conditions: time 14.0 day
# 4T1 [19] = experiment: Antitumor activity against mouse 4T1 cells implanted in BALB/C mouse assessed as downregulation of NRIP1 gene expression at 50 mg/kg,ip administrated daily for 14 days by RT-qPCR analysis; type: functional, organism-based; conditions: time 14.0 day
# 4T1 [20] = experiment: Antitumor activity against mouse 4T1 cells implanted in BALB/C mouse assessed as upregulation of IFNalpha gene expression at 50 mg/kg,ip administrated daily for 14 days by RT-qPCR analysis; type: functional, organism-based; conditions: time 14.0 day
# 4T1 [21] = experiment: Antitumor activity against mouse 4T1 cells implanted in BALB/C mouse assessed as upregulation of CCL5 gene expression at 50 mg/kg,ip administrated daily for 14 days by RT-qPCR analysis; type: functional, organism-based; conditions: time 14.0 day
# MCF7 [22] = experiment: Synergistic antiproliferative activity against human MCF7 cells assessed as downregulation of CCND1 gene expression at 2.5 uM incubated for 6 hrs in presence of tamoxifen by RT-qPCR analysis; type: functional, cell-based
# MCF7 [23] = experiment: Synergistic antiproliferative activity against human MCF7 cells assessed as downregulation of C-Myc gene expression at 2.5 uM incubated for 6 hrs in presence of fulvestrant by RT-qPCR analysis; type: functional, cell-based
# MCF7 [24] = experiment: Synergistic antiproliferative activity against human MCF7 cells assessed as downregulation of TFF1 gene expression at 2.5 uM incubated for 6 hrs in presence of tamoxifen by RT-qPCR analysis; type: functional, cell-based
# MCF7 [25] = experiment: Synergistic antiproliferative activity against human MCF7 cells assessed as downregulation of GREB1 gene expression at 2.5 uM incubated for 6 hrs in presence of tamoxifen by RT-qPCR analysis; type: functional, cell-based
# MCF7 [26] = experiment: Synergistic antiproliferative activity against human MCF7 cells assessed as downregulation of FOXC1 gene expression at 2.5 uM incubated for 6 hrs in presence of fulvestrant by RT-qPCR analysis; type: functional, cell-based
# MCF7 [27] = experiment: Synergistic antitumor activity against human MCF7 cells xenografted in BALB/C mouse assessed as downregulation of TFF1 gene expression at 25 mg/kg,ip administrated every other day for 15 days in presence of 5 mg/kg tamoxifen oral administration by RT-qPCR analysis; type: functional, organism-based; conditions: time 15.0 day
# MCF7 [28] = experiment: Potentiation of etoposide induced antiproliferative activity against human MCF7 cells assessed as upregulation of CCL5 gene expression at 2.5 uM in presence of etoposide by RT-qPCR analysis; type: functional, cell-based
# 4T1 [29] = experiment: Potentiation of etoposide induced antitumor activity against mouse 4T1 cells implanted in BALB/C mouse assessed as reduction in tumor weight at 25 mg/kg,ip administrated daily for 12 days in presence of 8 mg/kg etoposide administration; type: functional, organism-based; conditions: time 12.0 day
# 4T1 [30] = experiment: Potentiation of etoposide induced antitumor activity against mouse 4T1 cells implanted in BALB/C mouse assessed as upregulation of IFIT1 gene expression at 25 mg/kg,ip administrated daily for 12 days in presence of 8 mg/kg etoposide administration by RT-qPCR analysis; type: functional, organism-based; conditions: time 12.0 day
smiles,measurement,setting,value
Cc1ccc(-c2nc(N3CCN(CCN(C)C)CC3)ncc2-c2ccoc2)cc1.Cl.Cl,EC50,MCF7 [1],1800 nM
same,EC50,BT-474,2130 nM
same,Activity,MCF7 [2],Active
same,Activity,[3],Non-Toxic
same,Activity,[4],Non-Toxic
same,Activity,MCF7 [5],Active
same,Activity,MCF7 [6],Active
same,Activity,MCF7 [7],Active
same,Activity,MCF7 [8],Active
same,Activity,MCF7 [9],Active
same,EC50,MDA-MB-231 [10],3750 nM
same,EC50,HCC1806,2830 nM
same,Activity,MDA-MB-231 [11],Active
same,Activity,[12],Non-Toxic
same,Activity,[13],Non-Toxic
same,Activity,4T1 [14],Active
same,Activity,[15],Non-Toxic
same,Activity,4T1 [16],Active
same,Activity,4T1 [17],Active
same,Activity,4T1 [18],Active
same,Activity,4T1 [19],Active
same,Activity,4T1 [20],Active
same,Activity,4T1 [21],Active
same,Activity,MCF7 [22],Active
same,Activity,MCF7 [23],Active
same,Activity,MCF7 [24],Active
same,Activity,MCF7 [25],Active
same,Activity,MCF7 [26],Active
same,Activity,MCF7 [27],Active
same,Activity,MCF7 [28],Active
same,Activity,4T1 [29],Active
same,Activity,4T1 [30],Active
